# In paper PMC7904550, “Application of grouping and read-across for the evaluation of parabens of different chain lengths with a particular focus on endocrine properties” (Archives of Toxicology, 2021):
# Columns and labels:
# in vivo = settings: for concentration at 1 h / Tmax / AUC(0-t) / Cmax: Wistar, rat, serum; for concentration at 1 h: oral; for Tmax / AUC(0-t) / Cmax: po; for AUC(0-t) / Cmax / AUC0-1 h/AUC0–t / C1h/Cmax / Clast / tlast: parent compound
# In short: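 Test item given by oral gavage at 500 and 1000 mg/kg bw to 10 males and 10 females per dose group, following OECD TG 417. Serum parent parabens and the metabolite p-hydroxybenzoic acid were measured by […] (LOQ 10 ng/mL parabens, 130 ng/mL p-hydroxybenzoic acid). Faeces and urine were not analysed.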
# bacteria = settings: cited from earlier work
# mammalian cells = settings: cited from earlier work
# Wistar rats = assay: Extended one-generation reproductive toxicity study (OECD TG 443); type: in vivo, rat; settings: for NOAEL, EOGRTS: developmental and reproductive toxicity: OECD 443 v 2018, oral gavage
# Source text: Healthy and specific pathogen-free male and female (non-pregnant and nulliparous) Wistar Crl: WI(Han) rats were obtained from Charles River Laboratories (Germany). […] Upon arrival at BSL BIOSERVICE, the animals underwent an acclimatisation period of at least 5 days, and they were approximately 15–16 weeks old at the onset of the treatment period.
compound,measurement,setting,value
"CCCOC(=O)c1ccc(O)cc1 [Propyl paraben, Propyl 4-hydroxybenzoate]",concentration at 1 h,"in vivo; female, 500 mg/kg",0.068 µg/mL
same,concentration at 1 h,"in vivo; female, 1000 mg/kg",0.0202 µg/mL
same,Tmax,"in vivo; female, 500 mg/kg",15 min
same,AUC(0-t),"in vivo; female, 500 mg/kg, AUC0-1 h",0.291 µg·h/mL
same,AUC(0-t),"in vivo; female, 500 mg/kg, AUC0–t",1.12 µg·h/mL
same,Cmax,"in vivo; female, 500 mg/kg",1.39 µg/mL
same,Tmax,"in vivo; female, 1000 mg/kg",10.2 min
same,AUC(0-t),"in vivo; female, 1000 mg/kg, AUC0-1 h",0.156 µg·h/mL
same,AUC(0-t),"in vivo; female, 1000 mg/kg, AUC0–t",0.317 µg·h/mL
same,Cmax,"in vivo; female, 1000 mg/kg",0.94 µg/mL
same,concentration at 1 h,"in vivo; male, 500 mg/kg",0.023 µg/mL
same,concentration at 1 h,"in vivo; male, 1000 mg/kg",0.0623 µg/mL
same,Tmax,"in vivo; male, 500 mg/kg",10.2 min
same,AUC(0-t),"in vivo; male, 500 mg/kg, AUC0-1 h",0.0949 µg·h/mL
same,AUC(0-t),"in vivo; male, 500 mg/kg, AUC0–t",0.15 µg·h/mL
same,Cmax,"in vivo; male, 500 mg/kg",0.345 µg/mL
same,Tmax,"in vivo; male, 1000 mg/kg",10.2 min
same,AUC(0-t),"in vivo; male, 1000 mg/kg, AUC0-1 h",0.175 µg·h/mL
same,AUC(0-t),"in vivo; male, 1000 mg/kg, AUC0–t",0.38 µg·h/mL
same,Cmax,"in vivo; male, 1000 mg/kg",0.735 µg/mL
same,AUC0-1 h/AUC0–t,"in vivo; 500 mg/kg, female",26%
same,C1h/Cmax,"in vivo; 500 mg/kg, female",4.9%
same,Clast,"in vivo; 500 mg/kg, female",0.136 µg/mL
same,tlast,"in vivo; 500 mg/kg, female",8.0 h
same,AUC0-1 h/AUC0–t,"in vivo; 500 mg/kg, male",63%
same,C1h/Cmax,"in vivo; 500 mg/kg, male",6.7%
same,Clast,"in vivo; 500 mg/kg, male",0.0136 µg/mL
same,tlast,"in vivo; 500 mg/kg, male",4.0 h
same,AUC0-1 h/AUC0–t,"in vivo; 1000 mg/kg, female",49%
same,C1h/Cmax,"in vivo; 1000 mg/kg, female",2.1%
same,Clast,"in vivo; 1000 mg/kg, female",0.0116 µg/mL
same,tlast,"in vivo; 1000 mg/kg, female",8.0 h
same,AUC0-1 h/AUC0–t,"in vivo; 1000 mg/kg, male",46%
same,C1h/Cmax,"in vivo; 1000 mg/kg, male",8.5%
same,Clast,"in vivo; 1000 mg/kg, male",0.0143 µg/mL
same,tlast,"in vivo; 1000 mg/kg, male",8.0 h
same,Mutagenicity in bacteria classification,bacteria,Not mutagenic [c] (OECD 471; 2018)
same,Mutagenicity in mammalian cells classification,mammalian cells,Not mutagenic [c] (OECD 476; 2012)
same,Developmental immunotoxicity (DIT),Wistar rats; DIT cohort,did not exhibit
same,Developmental neurotoxicity (DNT),Wistar rats; DNT cohort,did not exhibit DNT
same,"NOAEL, EOGRTS: developmental and reproductive toxicity",Wistar rats,NOAEL: 1000 (OECD 443; v 2018) mg/kg body weight/day
same,"NOAEL, EOGRTS: developmental and reproductive toxicity",Wistar rats; listed as propyl paraben,1000 mg/kg body weight/day
same,Accessory sex organs HP,"Wistar rats; P0, F1, (F2)",NAE / NAE
same,Adrenals HP,"Wistar rats; P0, F1, (F2)",NAE / NAE
same,Adrenals weight,"Wistar rats; P0, F1, (F2)",NAE / NAE
same,Age at balano-preputial separation,"Wistar rats; P0, F1, (F2)",NAE / NAE
same,Age at vaginal opening,"Wistar rats; P0, F1, (F2)",NAE / NAE
same,Anogenital distance,"Wistar rats; P0, F1, (F2)",NAE / NAE
same,Auditory startle,"Wistar rats; P0, F1, (F2)",NAE / NAE
same,Brain HP,"Wistar rats; P0, F1, (F2)",NAE / NAE
same,Brain morphometric evaluation,"Wistar rats; P0, F1, (F2)",NAE / NAE
same,Brain weight,"Wistar rats; P0, F1, (F2)",NAE / NAE
same,Cervix HP,"Wistar rats; P0, F1, (F2)",NAE / NAE
same,Coagulating gland HP,"Wistar rats; P0, F1, (F2)",NAE / NAE
same,Coagulating gland weight,"Wistar rats; P0, F1, (F2)",NAE / NAE
same,Colloid area (thyroid HP),"Wistar rats; P0, F1, (F2)",NAE / NAE
same,Dystocia,"Wistar rats; P0, F1, (F2)",NAE / NAE
same,Epididymis HP,"Wistar rats; P0, F1, (F2)",NAE / NAE
same,Epididymis weight,"Wistar rats; P0, F1, (F2)",NAE / NAE
same,Fertility,"Wistar rats; P0, F1, (F2)",NAE / NAE
same,Foetal development,"Wistar rats; P0, F1, (F2)",NAE / NAE
same,Functional observation battery,"Wistar rats; P0, F1, (F2)",NAE [h] / NAE
same,Gestation length,"Wistar rats; P0, F1, (F2)",NAE / NAE
same,Litter size,"Wistar rats; P0, F1, (F2)",NAE / NAE
same,Litter viability,"Wistar rats; P0, F1, (F2)",NAE / NAE
same,Liver weight,"Wistar rats; P0, F1, (F2)",NAE / NAE
same,Mammary gland HP; females,"Wistar rats; P0, F1, (F2)",NAE / NAE
same,Mammary gland HP; males,"Wistar rats; P0, F1, (F2)",NAE / NAE
same,Motor activity,"Wistar rats; P0, F1, (F2)",NAE / NAE
same,Nipple development,"Wistar rats; P0, F1, (F2)",NAE / NAE
same,"No. of implantations, corpora lutea","Wistar rats; P0, F1, (F2)",NAE / NAE
same,No. of live births,"Wistar rats; P0, F1, (F2)",NAE / NAE
same,No. of ovarian follicles,"Wistar rats; P0, F1, (F2)",NAE / NAE
same,Oestrus cyclicity,"Wistar rats; P0, F1, (F2)",NAE / NAE
same,Offspring: learning & memory,"Wistar rats; P0, F1, (F2)",NAE / NAE
same,Ovary HP,"Wistar rats; P0, F1, (F2)",NAE / NAE
same,Ovary weight,"Wistar rats; P0, F1, (F2)",NAE / NAE
same,Oviduct HP,"Wistar rats; P0, F1, (F2)",NAE / NAE
same,Pituitary HP,"Wistar rats; P0, F1, (F2)",NAE / NAE
same,Pituitary weight,"Wistar rats; P0, F1, (F2)",NAE / NAE
same,Postimplantation loss,"Wistar rats; P0, F1, (F2)",NAE / NAE
same,"Presence of anomalies (external, visceral, skeletal)","Wistar rats; P0, F1, (F2)",NAE / NAE
same,Prostate HP,"Wistar rats; P0, F1, (F2)",NAE / NAE
same,Prostate weight,"Wistar rats; P0, F1, (F2)",NAE / NAE
same,Pup development,"Wistar rats; P0, F1, (F2)",NAE / NAE
same,Reproduction,"Wistar rats; P0, F1, (F2)",NAE / NAE
same,Seminal vesicles HP,"Wistar rats; P0, F1, (F2)",NAE / NAE
same,Seminal vesicles weight,"Wistar rats; P0, F1, (F2)",NAE / NAE
same,Sperm morphology,"Wistar rats; P0, F1, (F2)",NAE / NAE
same,Sperm motility,"Wistar rats; P0, F1, (F2)",NAE / NAE
same,Sperm numbers,"Wistar rats; P0, F1, (F2)",NAE / NAE
same,Testis HP,"Wistar rats; P0, F1, (F2)",NAE / NAE
same,Testis weight,"Wistar rats; P0, F1, (F2)",NAE / NAE
same,Thyroid HP,"Wistar rats; P0, F1, (F2)",NAE / NAE
same,Thyroid stimulating hormone level,"Wistar rats; P0, F1, (F2)",NAE / NAE
same,Thyroid weight,"Wistar rats; P0, F1, (F2)",NAE / NAE
same,Time to mating,"Wistar rats; P0, F1, (F2)",NAE / NAE
same,Triiodothyronine / thyroxine level,"Wistar rats; P0, F1, (F2)",NAE / NAE
same,Uterus HP (with cervix),"Wistar rats; P0, F1, (F2)",NAE / NAE
same,Uterus weight (with cervix),"Wistar rats; P0, F1, (F2)",NAE / NAE
same,Vagina HP,"Wistar rats; P0, F1, (F2)",NAE / NAE
same,Vaginal smears,"Wistar rats; P0, F1, (F2)",NAE / NAE
same,"Anogenital distance, female pups PND 0","Wistar rats; all dose groups, within historical control, assessed as not toxicologically relevant",minimal lower absolute and relative anogenital distance
same,Clinical biochemistry parameters,"Wistar rats; parental animals, assessed as not toxicologically relevant",few marginal but statistically significant differences
same,Thyroid stimulating hormone,"Wistar rats; parental females (and F1 males) of high dose group, assessed as not toxicologically relevant",slight but statistically significantly higher group mean thyroid stimulating hormone values
same,Alterations of the parameters addressed in OECD TG 443,Wistar rats; up to 1000 mg/kg bw/day,no toxicologically relevant alterations
same,Local reactions after gavage,Wistar rats; without toxicological relevance,Transient increased salivation
